Source: patent publication US10398142B2, “Polycationic amphiphiles as antimicrobial agents” (priority 2013, dated 2019)
Several values for one entry are separate records, joined by “and”; a condition that tells them apart may be missing. Equal entries are not always repeated. Where two headings read alike, the source gives them in different places.

Experiments:
[1] = system: S. aureus (MSSA, SH1000) biofilms; assay: Minimum biofilm eradication concentration (MBEC), regrowth assay; assay type: cell-based, Staphylococcus aureus; settings: for MBEC MSSA: Table 5, SH1000
From the text: (§1) A regrowth assay was used to establish the MBEC of a compound to evaluate the antibiofilm activity. See also H. Ceri, M. Olson, D. Morck, D. Storey, R. Read, A. Buret, B. Olson, Methods Enzymol. 2001, 337, 377.
(§2) Encouraged by the potency of the QACs against planktonic bacterial cells, the inventors then evaluated the efficacy of compound (12,2,12) against Staphylococcus aureus and Enterococcus faecalis biofilms. […] To both accurately evaluate the antibiofilm activity, a regrowth assay was utilized to establish the minimum biofilm eradication concentration (MBEC) of each compound.
(§3) Different biological assays were performed. For all biological assays, laboratory strains of methicillin-susceptible Staphylococcus aureus MSSA (SH1000), Enterococcus faecalis (OG1RF), Escherichia coli (MC4100), Pseudomonas aeruginosa (PAO1), community-acquired methicillin-resistant Staphylococcus aureus CA-MRSA (USA300-0114), and hospital-acquired methicillin-resistant Staphylococcus aureus HA-MRSA (ATCC 33591) were grown at 37° C. overnight from freezer stocks in 10 mL of the media indicated for each assay. All cultures, with the exception of E. faecalis, were grown with shaking at 250 rpm.
(§4) Minimum biofilm eradication concentration (MBEC) was also measured. To each well of a flat-bottomed 96-well plate (Corning 3370), 8 μL of overnight bacterial culture was brought to a volume of 200 μL with fresh media (BHI for S. aureus and MRSA, Todd Hewitt (TH) for E. faecalis). Plates were incubated statically for 24 hours at 37° C. to establish biofilms. After 24 hours, the wells were carefully emptied by inverting the plate and gently shaking. A pre-mixed solution of media and aqueous compound stock solution was added to each well and plates were incubated at 37° C. 16 hours after pre-established biofilms were treated with compound, the media from each well was removed, biofilms were washed three times with 200 μL PBS to remove planktonic cells, and biofilms were incubated overnight at 37° C. in 200 μL of fresh media to allow any viable cells to continue growing. The wells were then vigorously pipetted to resuspend the biofilm cells and the OD at 595 nm was measured using a plate reader (POLARstar Omega, BMG Labtech). Biofilms reaching a final OD of less than 0.1 were considered eradicated and the lowest concentration of antibiotic corresponded to the MBEC. Four replicates were completed for each concentration of compound as well as positive and negative controls.

[2] = system: CA-MRSA (USA300-0114) biofilms; assay: as above; assay type: cell-based, Staphylococcus aureus; settings: Table 5; USA300-0114
Procedure: as §1, §3, §4

[3] = system: Staphylococcus aureus MSSA (SH1000); assay: Minimum inhibitory concentration (MIC), broth microdilution; assay type: cell-based
Procedure: (§5) The term “minimum inhibitory concentration (MIC)” means the lowest concentration of an antimicrobial agent that will inhibit the visible growth of a microorganism after overnight incubation. MIC values against bacteria, for example, the Gram-positive Staphylococcus aureus and Enterococcus faecalis and the Gram-negative Escherichia coli and Pseudomonas aeruginosa were determined by standard methods.
(§6) With nearly three-dozen amphiphiles varying in structure and cationic nature synthesized, minimum inhibitory concentration (MIC) values against the Gram-positive Staphylococcus aureus and Enterococcus faecalis and the Gram-negative Escherichia coli and Pseudomonas aeruginosa were determined by standard methods. […] The commercially available antibacterial agent benzalkonium chloride (benzyldimethyldodecylammonium chloride, Bn,12) was tested for comparison. The broth microdilution for determining MIC values was performed as previously reported.
(§7) Different biological assays were performed. […] All cultures, with the exception of E. faecalis, were grown with shaking at 250 rpm.
(§8) Minimum inhibitory concentration (MIC) values against bacteria were measured using standard method. Compounds were serially diluted two-fold from an aqueous stock solution to yield twelve test concentrations. Overnight S. aureus, E. faecalis, E. coli, P. aeruginosa, CA-MRSA, and HA-MRSA cultures diluted to ca. 10^6 cfu/mL in Mueller-Hinton media and 100 μL were inoculated into each well of a U-bottom 96-well plate (BD Biosciences, BD351177) containing 100 μL of compound solution. Plates were incubated statically at 37° C. for 72 hours upon which time wells were evaluated visually for bacterial growth. The MIC was determined as the lowest concentration of compound resulting in no bacterial growth visible to the naked eye, based on the majority of three independent experiments. Positive and negative aqueous and media controls were conducted for each trial.

[4] = system: Pseudomonas aeruginosa (PAO1); assay: as above; assay type: cell-based; settings: read-out: MIC P. aeruginosa
Procedure: as §5, §6, §7, §8

[5] = system: Escherichia coli (MC4100); assay: as above; assay type: cell-based; settings: read-out: MIC E. coli
Procedure: as §5, §6, §7, §8

[6] = system: Enterococcus faecalis (OG1RF); assay: as above; assay type: cell-based; settings: read-out: MIC E. faecalis
Procedure: as §5, §6, §7, §8

E. faecalis biofilms = assay: Minimum biofilm eradication concentration (MBEC), regrowth assay; assay type: cell-based, Enterococcus faecalis
From the text: as §1, §2, §3, §4

CA-MRSA (USA300-0114) = assay: Minimum inhibitory concentration (MIC), broth microdilution; assay type: cell-based, Staphylococcus aureus; settings: Table 4, USA300-0114, read-out: MIC CA-MRSA
Procedure: as §7, §8

HA-MRSA (ATCC 33591) = assay: as above; assay type: cell-based, Staphylococcus aureus; settings: Table 4, ATCC 33591, read-out: MIC HA-MRSA
Procedure: as §7, §8

[7] = system: red blood cells (defibrinated sheep blood); assay: Hemolysis assay (Lysis20); settings: for Lysis20: Table 4, concentration at which less than 20% of red blood cells are lysed
Procedure: Hemolysis assays (Lysis20) were performed according to the procedure detailed in Peng, L., DeSousa, J., Su, Z., Novak, B. M., Nevzorov, A. A., Garland, E. R., and Melander, C., Inhibition of Acinetobacter baumannii biofilm formation on a methacrylate polymer containing a 2-aminoimidazole subunit, Chem. Comm. 2011, 47, 4896-4898. Defibrinated sheep blood was purchased from Hemostat Labs (DSB 100). Compounds representative of each class were serially diluted in sterile PBS from aqueous stock solutions and incubated with resuspended blood cells. The OD of the final suspensions were measured directly using plate reader. TritonX (1% by volume) served as a positive control (100% lysis marker) and sterile PBS served as a negative control (0% lysis marker).
Lysis20 indicates the concentration of compound (in μM) at which less than 20% of red blood cells are lysed.

[8] = Table 3, read-out: MIC S. aureus
[9] = Table 4, SH1000, read-out: MIC MSSA
[10] = Table 2, pre-established biofilm, ± values varied between 50 and 100 μM for the six trials

SMILES	MBEC MSSA [1] [µM]	MBEC CA-MRSA [2] [µM]	MIC [3, 9] [µM]	MBEC E. faecalis (E. faecalis biofilms; Table 5) [µM]	MIC (CA-MRSA (USA300-0114)) [µM]	MIC (HA-MRSA (ATCC 33591)) [µM]	Lysis20 [7] [µM]	other results
C=CC[N+](C)(CCC[N+](C)(C)CCCCCCCCCCCC)CCC[N+](C)(C)CCCCCCCCCCCC.[Br-].[Br-].[Br-] [12,3,3A,3,12]	50	100	1	75 ± 25	1	1	8	MIC [3, 8]: 1 µM; MIC ([4]; Table 3): 4 µM; MIC ([5]; Table 3): 2 µM; MIC ([6]; Table 3): 2 µM
CCCCCCCCCCCC[N+](C)(C)CCC[N+](C)(CCCC)CCC[N+](C)(C)CCCCCCCCCCCC.[Br-].[Br-].[Br-] [12,3,4,3,12]	75 ± 25	75 ± 25	1	50	0.5	0.5	8	MIC [3, 8]: 1 µM; MIC ([4]; Table 3): 2 µM; MIC ([5]; Table 3): 1 µM; MIC ([6]; Table 3): 1 µM
CCCCCCCCCCCC[N+](C)(C)CC[N+](C)(C)CCCCCCCCCCCC [12,2,12]	75 ± 25	200	1	50	0.5	0.5	8	MBEC S. aureus [1, 10]: 75 μM and 75 ± 25^a μM; MIC ([3]; Table 1, read-out: MIC S. aureus): 1 µM; MIC ([4]; Table 1): 4 µM; MIC ([5]; Table 1): 2 µM; MIC ([6]; Table 1): 1 µM; MBEC E. faecalis (E. faecalis biofilms; [10]): 75 μM and 75 ± 25^a μM
CCCCCCCCCCCC[N+](C)(C)CCCN(C)C.[Br-] [12,3,0]	>200	>200	4	>200	8	4	32	
CCCCCCCCCC[N+](C)(C)CCCN(C)CCC[N+](C)(C)CCCCCCCCCC [10,3,0,3,10]	150 ± 50	150 ± 50		50			32	MIC ([3]; Staphylococcus aureus, MSSA, Table 4, SH1000, read-out: MIC MSSA): 1 µM; MIC (CA-MRSA (USA300-0114); Staphylococcus aureus): 2 µM; MIC (HA-MRSA (ATCC 33591); Staphylococcus aureus): 2 µM; prokaryotic selectivity (lytic profile vs MIC, in words) ([7]; among the multiQACs evaluated): highest prokaryotic selectivity
CCCCCCCCCCCCCCCC[N+](C)(C)CCN(C)C.[Br-] [16,2,0]	100	>200	1	50	4	2	16	
CCCCCCCCCC[N+](C)(C)CCCCCCCCCC.[Cl-] [10,10, reference compound]	150 ± 50	≥200	1	>200	4	2	16	
